Experimental data from paper PMC5814754, “Quantitative, Wide-Spectrum Kinase Profiling in Live Cells for Assessing the Effect of Cellular ATP on Target Engagement” (Cell Chemical Biology, 2018).

How the values were obtained:
Experiment in all cases: Apparent affinity (EC50) of energy transfer probes by titration onto live HEK293 cells expressing kinase/Nluc fusions (Table S1)
Format in all cases: binding
[1] = target: full-length kinase/Nluc fusion proteins (Homo sapiens, UniProt Q16584); settings: MAP3K11, Nluc N; read-out: Probe EC50
[2] = target: full-length kinase/Nluc fusion proteins (Homo sapiens, UniProt P51817); settings: PRKX, Nluc C; read-out: Probe EC50
[3] = target: full-length kinase/Nluc fusion proteins (Homo sapiens, UniProt Q9UM73); settings: ALK, Nluc C; read-out: Probe EC50
[4] = target: full-length kinase/Nluc fusion proteins (Homo sapiens, UniProt P04629); settings: NTRK1, Nluc C; read-out: Probe EC50
[5] = target: full-length kinase/Nluc fusion proteins (Homo sapiens, UniProt Q05397); settings: PTK2, Nluc N; read-out: Probe EC50
[6] = target: full-length kinase/Nluc fusion proteins (Homo sapiens, UniProt Q02156); settings: PRKCE, Nluc C; read-out: Probe EC50
[7] = target: full-length kinase/Nluc fusion proteins (Homo sapiens, UniProt Q9Y616); settings: IRAK3, Nluc N; read-out: Probe EC50
[8] = target: full-length kinase/Nluc fusion proteins (Homo sapiens, UniProt P49760); settings: CLK2, Nluc C; read-out: Probe EC50
[9] = target: full-length kinase/Nluc fusion proteins (Homo sapiens, UniProt Q8IVH8); settings: MAP4K3, Nluc N; read-out: Probe EC50
[10] = target: full-length kinase/Nluc fusion proteins (Homo sapiens, UniProt O76039); settings: CDKL5, Nluc N; read-out: Probe EC50
[11] = target: full-length kinase/Nluc fusion proteins (Homo sapiens, UniProt Q9H1R3); settings: MYLK2, Nluc C; read-out: Probe EC50
[12] = target: full-length kinase/Nluc fusion proteins (Homo sapiens, UniProt P51812); settings: RPS6KA3 (NP_004577), Nluc orientation N; read-out: Probe EC50
[13] = target: full-length kinase/Nluc fusion proteins (Homo sapiens, UniProt Q02763); settings: TEK (NP_000450), Nluc orientation C; read-out: Probe EC50
[14] = target: full-length kinase/Nluc fusion proteins (Homo sapiens, UniProt Q02779); settings: MAP3K10, Nluc N; read-out: Probe EC50
[15] = target: full-length kinase/Nluc fusion proteins (Homo sapiens, UniProt P28482); settings: MAPK1, Nluc N; read-out: Probe EC50
[16] = target: full-length kinase/Nluc fusion proteins (Homo sapiens, UniProt Q15375); settings: EPHA7, Nluc C; read-out: Probe EC50
[17] = target: full-length kinase/Nluc fusion proteins (Homo sapiens, UniProt O75385); settings: ULK1 (NP_003556), Nluc orientation N; read-out: Probe EC50
[18] = target: full-length kinase/Nluc fusion proteins (Homo sapiens, UniProt Q12851); settings: MAP4K2, Nluc N; read-out: Probe EC50
[19] = target: full-length kinase/Nluc fusion proteins (Homo sapiens, UniProt Q9HAZ1); settings: CLK4, Nluc C; read-out: Probe EC50
[20] = target: full-length kinase/Nluc fusion proteins (Homo sapiens, UniProt P33981); settings: TTK (NP_003309), Nluc orientation C; read-out: Probe EC50
[21] = target: full-length kinase/Nluc fusion proteins (Homo sapiens, UniProt Q12866); settings: MERTK, Nluc C; read-out: Probe EC50
[22] = target: full-length kinase/Nluc fusion proteins (Homo sapiens, UniProt P30291); settings: WEE1 (NP_003381), Nluc orientation C; read-out: Probe EC50
[23] = target: full-length kinase/Nluc fusion proteins (Homo sapiens, UniProt Q8IWQ3); settings: BRSK2, Nluc N; read-out: Probe EC50
[24] = target: full-length kinase/Nluc fusion proteins (Homo sapiens, UniProt Q96GD4); settings: AURKB, Nluc C; read-out: Probe EC50
[25] = target: full-length kinase/Nluc fusion proteins (Homo sapiens, UniProt P29376); settings: LTK, Nluc C; read-out: Probe EC50
[26] = target: full-length kinase/Nluc fusion proteins (Homo sapiens, UniProt Q14289); settings: PTK2B, Nluc C; read-out: Probe EC50
[27] = target: full-length kinase/Nluc fusion proteins (Homo sapiens, UniProt P00519); settings: ABL1, Nluc N; read-out: Probe EC50
[28] = target: full-length kinase/Nluc fusion proteins (Homo sapiens, UniProt P51813); settings: BMX, Nluc C; read-out: Probe EC50
[29] = target: full-length kinase/Nluc fusion proteins (Homo sapiens, UniProt O43353); settings: RIPK2 (NP_003812), Nluc orientation N; read-out: Probe EC50
[30] = target: full-length kinase/Nluc fusion proteins (Homo sapiens, UniProt P29322); settings: EPHA8, Nluc C; read-out: Probe EC50
[31] = target: full-length kinase/Nluc fusion proteins (Homo sapiens, UniProt O15197); settings: EPHB6, Nluc C; read-out: Probe EC50
[32] = target: full-length kinase/Nluc fusion proteins (Homo sapiens, UniProt P07948); settings: LYN, Nluc C; read-out: Probe EC50
full-length kinase/Nluc fusion proteins (Homo sapiens, UniProt P07948), sequence (P07948 whole entry, the tested form may be a part): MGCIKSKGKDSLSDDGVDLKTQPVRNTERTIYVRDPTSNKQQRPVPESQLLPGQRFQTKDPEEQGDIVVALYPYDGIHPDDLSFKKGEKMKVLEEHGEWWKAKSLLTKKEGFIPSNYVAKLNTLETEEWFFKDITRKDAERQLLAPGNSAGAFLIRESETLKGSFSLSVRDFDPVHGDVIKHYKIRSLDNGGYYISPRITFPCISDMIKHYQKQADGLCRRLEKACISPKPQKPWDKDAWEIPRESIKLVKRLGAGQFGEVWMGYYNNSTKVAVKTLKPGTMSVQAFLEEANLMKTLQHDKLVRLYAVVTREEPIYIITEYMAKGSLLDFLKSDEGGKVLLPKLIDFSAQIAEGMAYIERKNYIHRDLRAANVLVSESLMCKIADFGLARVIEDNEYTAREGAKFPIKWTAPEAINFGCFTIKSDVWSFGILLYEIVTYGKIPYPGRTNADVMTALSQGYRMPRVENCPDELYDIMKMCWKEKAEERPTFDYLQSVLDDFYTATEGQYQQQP

full-length kinase/Nluc fusion proteins (Homo sapiens, UniProt Q05397), sequence (Q05397 whole entry, the tested form may be a part): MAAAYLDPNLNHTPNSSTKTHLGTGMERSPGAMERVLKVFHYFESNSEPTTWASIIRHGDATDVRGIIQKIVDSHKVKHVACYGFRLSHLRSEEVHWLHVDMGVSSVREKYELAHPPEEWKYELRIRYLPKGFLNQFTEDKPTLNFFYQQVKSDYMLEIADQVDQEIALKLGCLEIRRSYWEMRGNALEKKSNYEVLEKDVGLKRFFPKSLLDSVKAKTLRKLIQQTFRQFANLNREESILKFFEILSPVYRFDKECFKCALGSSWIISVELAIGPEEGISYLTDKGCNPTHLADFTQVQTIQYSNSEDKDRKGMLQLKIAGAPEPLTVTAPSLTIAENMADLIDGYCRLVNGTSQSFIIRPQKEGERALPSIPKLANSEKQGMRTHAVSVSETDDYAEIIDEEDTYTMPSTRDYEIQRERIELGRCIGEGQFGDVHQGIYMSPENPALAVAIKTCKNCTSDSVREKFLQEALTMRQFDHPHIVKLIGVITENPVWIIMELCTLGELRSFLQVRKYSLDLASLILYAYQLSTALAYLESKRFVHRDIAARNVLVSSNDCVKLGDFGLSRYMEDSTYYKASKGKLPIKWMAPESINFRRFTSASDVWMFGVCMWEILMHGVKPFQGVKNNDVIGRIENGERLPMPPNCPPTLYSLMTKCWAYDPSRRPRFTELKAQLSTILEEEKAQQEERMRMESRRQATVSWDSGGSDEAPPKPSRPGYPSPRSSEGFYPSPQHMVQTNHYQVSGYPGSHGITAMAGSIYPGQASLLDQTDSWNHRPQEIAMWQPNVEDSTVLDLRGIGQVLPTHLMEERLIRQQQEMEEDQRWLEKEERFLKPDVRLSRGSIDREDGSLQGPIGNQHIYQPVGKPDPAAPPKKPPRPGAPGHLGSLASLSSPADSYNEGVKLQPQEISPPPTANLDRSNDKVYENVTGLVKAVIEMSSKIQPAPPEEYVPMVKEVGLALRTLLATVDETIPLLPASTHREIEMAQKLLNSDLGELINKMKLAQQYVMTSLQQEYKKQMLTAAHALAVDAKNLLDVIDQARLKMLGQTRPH
full-length kinase/Nluc fusion proteins (Homo sapiens, UniProt O43353), sequence (O43353 whole entry, the tested form may be a part): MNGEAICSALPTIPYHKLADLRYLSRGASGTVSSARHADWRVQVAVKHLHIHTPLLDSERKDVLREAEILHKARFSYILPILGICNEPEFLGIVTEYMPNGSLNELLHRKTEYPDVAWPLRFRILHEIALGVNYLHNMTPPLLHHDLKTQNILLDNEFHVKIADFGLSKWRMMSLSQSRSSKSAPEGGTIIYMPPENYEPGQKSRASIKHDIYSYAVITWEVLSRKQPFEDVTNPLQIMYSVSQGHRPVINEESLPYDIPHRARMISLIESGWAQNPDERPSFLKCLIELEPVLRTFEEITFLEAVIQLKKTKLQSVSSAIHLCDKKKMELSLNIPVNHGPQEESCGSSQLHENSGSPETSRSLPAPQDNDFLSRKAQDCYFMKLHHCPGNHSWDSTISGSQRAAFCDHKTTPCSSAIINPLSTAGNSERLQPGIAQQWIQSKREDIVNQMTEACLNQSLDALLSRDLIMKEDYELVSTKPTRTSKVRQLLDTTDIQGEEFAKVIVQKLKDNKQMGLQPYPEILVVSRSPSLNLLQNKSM
full-length kinase/Nluc fusion proteins (Homo sapiens, UniProt Q9H1R3), sequence (Q9H1R3 whole entry, the tested form may be a part): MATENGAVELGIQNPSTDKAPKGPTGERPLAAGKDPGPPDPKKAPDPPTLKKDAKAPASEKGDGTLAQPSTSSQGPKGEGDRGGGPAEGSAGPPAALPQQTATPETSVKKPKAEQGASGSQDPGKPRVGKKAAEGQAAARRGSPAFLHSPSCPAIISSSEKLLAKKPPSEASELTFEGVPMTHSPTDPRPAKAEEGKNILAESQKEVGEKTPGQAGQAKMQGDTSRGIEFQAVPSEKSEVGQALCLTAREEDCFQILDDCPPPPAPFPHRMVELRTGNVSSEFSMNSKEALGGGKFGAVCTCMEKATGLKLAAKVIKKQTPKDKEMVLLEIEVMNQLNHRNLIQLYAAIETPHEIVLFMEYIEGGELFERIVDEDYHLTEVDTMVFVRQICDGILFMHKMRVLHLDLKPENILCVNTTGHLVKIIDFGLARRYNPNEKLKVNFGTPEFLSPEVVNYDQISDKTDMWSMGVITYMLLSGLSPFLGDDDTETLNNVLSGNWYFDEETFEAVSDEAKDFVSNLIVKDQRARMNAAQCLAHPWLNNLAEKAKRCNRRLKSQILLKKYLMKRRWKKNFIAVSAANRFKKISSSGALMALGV
full-length kinase/Nluc fusion proteins (Homo sapiens, UniProt Q15375), sequence (Q15375 28-998): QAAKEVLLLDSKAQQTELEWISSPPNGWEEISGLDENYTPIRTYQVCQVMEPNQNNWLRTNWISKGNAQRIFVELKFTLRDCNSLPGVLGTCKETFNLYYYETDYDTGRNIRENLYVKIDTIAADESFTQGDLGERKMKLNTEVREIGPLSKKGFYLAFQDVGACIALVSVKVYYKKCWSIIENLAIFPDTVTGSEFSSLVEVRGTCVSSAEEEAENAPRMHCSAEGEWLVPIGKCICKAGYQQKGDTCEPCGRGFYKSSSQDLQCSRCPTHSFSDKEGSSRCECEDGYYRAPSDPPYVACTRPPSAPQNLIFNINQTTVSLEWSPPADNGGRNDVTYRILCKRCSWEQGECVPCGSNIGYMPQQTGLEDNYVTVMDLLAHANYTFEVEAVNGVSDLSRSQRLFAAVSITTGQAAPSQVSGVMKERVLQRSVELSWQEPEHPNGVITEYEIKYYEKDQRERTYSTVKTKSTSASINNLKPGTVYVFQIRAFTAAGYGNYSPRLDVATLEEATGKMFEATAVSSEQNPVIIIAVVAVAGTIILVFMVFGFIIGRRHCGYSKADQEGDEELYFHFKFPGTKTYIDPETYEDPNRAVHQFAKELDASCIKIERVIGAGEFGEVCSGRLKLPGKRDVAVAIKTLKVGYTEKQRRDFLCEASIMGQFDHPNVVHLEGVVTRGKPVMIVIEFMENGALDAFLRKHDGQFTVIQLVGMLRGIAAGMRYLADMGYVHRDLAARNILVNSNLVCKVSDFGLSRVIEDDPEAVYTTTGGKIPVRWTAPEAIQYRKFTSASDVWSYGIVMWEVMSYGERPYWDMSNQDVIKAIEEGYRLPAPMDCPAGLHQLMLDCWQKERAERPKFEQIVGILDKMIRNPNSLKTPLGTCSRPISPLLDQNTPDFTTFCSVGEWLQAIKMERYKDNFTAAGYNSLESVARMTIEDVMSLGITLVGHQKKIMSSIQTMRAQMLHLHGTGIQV
full-length kinase/Nluc fusion proteins (Homo sapiens, UniProt O75385), sequence (O75385 whole entry, the tested form may be a part): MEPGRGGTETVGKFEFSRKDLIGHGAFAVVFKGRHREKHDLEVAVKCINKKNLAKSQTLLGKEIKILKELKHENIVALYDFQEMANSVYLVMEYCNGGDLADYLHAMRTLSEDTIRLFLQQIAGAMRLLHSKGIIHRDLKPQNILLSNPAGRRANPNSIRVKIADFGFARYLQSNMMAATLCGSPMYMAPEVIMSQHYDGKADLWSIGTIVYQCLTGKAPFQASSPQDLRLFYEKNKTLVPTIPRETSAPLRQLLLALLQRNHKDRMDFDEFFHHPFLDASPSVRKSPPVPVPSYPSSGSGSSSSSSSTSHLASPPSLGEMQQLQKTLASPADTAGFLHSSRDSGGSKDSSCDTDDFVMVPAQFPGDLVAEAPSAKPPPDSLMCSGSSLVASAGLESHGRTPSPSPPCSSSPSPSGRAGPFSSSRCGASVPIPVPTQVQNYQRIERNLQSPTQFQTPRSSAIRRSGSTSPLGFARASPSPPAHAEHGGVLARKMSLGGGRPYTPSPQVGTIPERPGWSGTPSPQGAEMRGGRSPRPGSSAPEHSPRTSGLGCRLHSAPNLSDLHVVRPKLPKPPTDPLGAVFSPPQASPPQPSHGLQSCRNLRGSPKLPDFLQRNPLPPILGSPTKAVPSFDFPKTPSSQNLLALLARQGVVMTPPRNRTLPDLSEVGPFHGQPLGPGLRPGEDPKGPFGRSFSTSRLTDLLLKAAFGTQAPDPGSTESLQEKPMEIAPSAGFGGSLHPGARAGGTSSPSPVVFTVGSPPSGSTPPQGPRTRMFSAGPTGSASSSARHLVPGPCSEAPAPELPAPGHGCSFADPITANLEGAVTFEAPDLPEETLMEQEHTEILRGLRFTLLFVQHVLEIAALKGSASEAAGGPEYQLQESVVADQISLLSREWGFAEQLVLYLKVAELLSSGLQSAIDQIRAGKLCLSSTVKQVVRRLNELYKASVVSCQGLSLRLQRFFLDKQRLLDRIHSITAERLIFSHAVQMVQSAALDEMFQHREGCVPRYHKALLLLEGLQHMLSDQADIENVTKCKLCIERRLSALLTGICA
full-length kinase/Nluc fusion proteins (Homo sapiens, UniProt Q96GD4), sequence (Q96GD4 whole entry, the tested form may be a part): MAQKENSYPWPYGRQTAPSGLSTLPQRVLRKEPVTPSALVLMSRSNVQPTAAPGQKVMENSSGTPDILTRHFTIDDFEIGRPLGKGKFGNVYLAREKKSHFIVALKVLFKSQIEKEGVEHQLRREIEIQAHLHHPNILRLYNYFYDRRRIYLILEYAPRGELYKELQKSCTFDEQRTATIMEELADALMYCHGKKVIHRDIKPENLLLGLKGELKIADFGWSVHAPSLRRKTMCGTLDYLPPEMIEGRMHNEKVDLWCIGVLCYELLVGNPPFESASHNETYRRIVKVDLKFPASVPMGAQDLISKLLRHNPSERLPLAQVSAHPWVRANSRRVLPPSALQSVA

Question: For `CNC(=O)c1ccccc1Nc1nc(Nc2ccc(N3CCN(C(=O)CCOCCOCCOCCOCCNC(=O)CCc4ccc5n4[B-](F)(F)[N+]4=C(c6ccc[nH]6)C=CC4=C5)CC3)cc2)ncc1Cl` [Energy Transfer Probe 5, 2-((2-((4-(4-(1-amino-3,6,9,12-tetraoxapentadecan-15-oyl)piperazin-1-yl)phenyl)amino)-5-chloropyrimidin-4-yl)amino)-N-methylbenzamide-NanoBRET 590], which EC50 [1] is on record?
Answer: > 1000 nM

Question: What about the EC50 [2] of the same molecule?
Answer: > 1000 nM

Question: What about the EC50 [3] of the same molecule?
Answer: > 1000 nM

Question: And the EC50 [4]?
Answer: 400 nM

Question: What about the EC50 [5] of the same molecule?
Answer: 90 nM

Question: What about the EC50 [6] of the same molecule?
Answer: > 1000 nM

Question: What about the EC50 [7] of the same molecule?
Answer: 60 nM

Question: What about the EC50 [8] of the same molecule?
Answer: > 1000 nM

Question: What about the EC50 [9] of the same molecule?
Answer: > 1000 nM

Question: What about the EC50 [10] of the same molecule?
Answer: > 1000 nM

Question: What about the EC50 [11] of the same molecule?
Answer: > 1000 nM

Question: What about the EC50 [12] of the same molecule?
Answer: 200 nM

Question: What about the EC50 [13] of the same molecule?
Answer: 400 nM

Question: And the EC50 [14]?
Answer: > 1000 nM

Question: What about the EC50 [15] of the same molecule?
Answer: > 1000 nM

Question: What about the EC50 [16] of the same molecule?
Answer: > 1000 nM

Question: What about the EC50 [17] of the same molecule?
Answer: > 1000 nM

Question: And the EC50 [18]?
Answer: > 1000 nM

Question: What about the EC50 [19] of the same molecule?
Answer: 300 nM

Question: What about the EC50 [20] of the same molecule?
Answer: 300 nM

Question: And the EC50 [21]?
Answer: 300 nM

Question: And the EC50 [22]?
Answer: 50 nM

Question: What about the EC50 [23] of the same molecule?
Answer: > 1000 nM

Question: What about the EC50 [24] of the same molecule?
Answer: 10 nM

Question: What about the EC50 [25] of the same molecule?
Answer: > 1000 nM

Question: And the EC50 [26]?
Answer: 300 nM

Question: For `Cc1nc(Nc2ncc(C(=O)Nc3c(C)cccc3Cl)s2)cc(N2CCN(CCOCCNC(=O)CCc3ccc4n3[B-](F)(F)[N+]3=C(c5ccc[nH]5)C=CC3=C4)CC2)n1` [Energy Transfer Probe 6, 2-((6-(4-(2-(2-aminoethoxy)ethyl)piperazin-1-yl)-2-methylpyrimidin-4-yl)amino)-N-(2-chloro-6-methylphenyl)thiazole-5-carboxamide-NanoBRET 590], which EC50 [27] is on record?
Answer: 200 nM

Question: What about the EC50 [28] of the same molecule?
Answer: 300 nM

Question: What about the EC50 [29] of the same molecule?
Answer: 200 nM

Question: What about the EC50 [30] of the same molecule?
Answer: 10 nM

Question: And the EC50 [31]?
Answer: > 1000 nM

Question: And the EC50 [32]?
Answer: > 1000 nM
